Data reported in publication PMC5519068 (PLoS ONE, 2017).
pIC50: −log10 of the molar value. Where two headings read alike, the source gives them in different places.

Assays:
MOLM-13 cells = test: Growth inhibition, CellTiter-Blue viability, 72 h; type: cell-based; conditions: Homo sapiens, MOLM-13 (Flt3-ITD+), read-out: Growth Suppression in AML Cell Lines (IC50, nM) MOLM-13
Procedure: (§1) Cells were seeded at a density of 100,000 cells per 1.0 ml in 48-well culture plates. Compounds were added to various concentrations while holding the DMSO concentration constant at 0.1%. Cell viability was assessed 72 hours later using the CellTiter-Blue Cell Viability assay (Promega) according to the manufacturer’s protocol and a SpectraMax Multi-Mode Microplate Reader (Molecular Devices). IC50 values were determined by non-linear regression analysis of concentration-response curves using the GraphPad PRISM software package (version 6.0). Apoptosis was determined using the same cell culture conditions and the Apo-ONE Homogeneous Caspase-3/7 Assay (Promega) and the manufacturer’s protocol.
(§2) Fig 2 Fes tyrosine kinase inhibitors induce growth arrest in Flt3-ITD^+ AML cell lines. A) The Flt3-ITD^+ cell lines MV4-11, MOLM-13, and MOLM-14, along with THP-1 (wild-type FLT3) were incubated with each of the kinase inhibitors shown over a range of concentrations, and cell viability was measured 72 h later using the CellTiter-Blue Assay (see Materials and methods). Raw fluorescence data were corrected for background and then normalized to cultures grown in the presence of the DMSO carrier solvent. Each assay condition was performed in triplicate, and results are presented as the mean of the normalized values ± the SD. The resulting dose-response curves were fitted by non-linear regression analysis, and the resulting IC50 values are shown in Table 1.

MOLM-14 cells = test: Growth inhibition, CellTiter-Blue viability, 72 h; type: cell-based; conditions: Homo sapiens, MOLM-14 (Flt3-ITD+), read-out: Growth Suppression in AML Cell Lines (IC50, nM) MOLM-14
Procedure: as §1, §2

MV4-11 cells = test: Growth inhibition, CellTiter-Blue viability, 72 h; type: cell-based; conditions: Homo sapiens, MV4-11 (Flt3-ITD+), read-out: Growth Suppression in AML Cell Lines (IC50, nM) MV4-11
Procedure: as §1, §2

THP-1 cells = test: Growth inhibition, CellTiter-Blue viability, 72 h; type: cell-based; conditions: Homo sapiens, THP-1 (wild-type Flt3), read-out: Growth Suppression in AML Cell Lines (IC50, nM) THP-1
Procedure: as §1, §2

[1] = test system: TF-1 cells transduced with an empty retroviral vector (Control); test: Inhibitor sensitivity of TF-1 cell populations, CellTiter-Blue, 72 h; type: cell-based, human; conditions: Homo sapiens, TF-1; empty vector control, 72 h
Procedure: as §1
(§3) For each retroviral transduction, TF-1 cells (1 x 10^6) were suspended in 5 mL of undiluted viral supernatant and plated in one well of a 6-well tissue culture dish. Polybrene (Sigma) was added to a final concentration of 4 μg/mL and the TF-1 cells were centrifuged at 1000 x g for 3 hours to enhance retroviral mediated gene transfer. After centrifugation, the virus was removed and replaced with fresh medium.
(§4) Raw fluorescence data were corrected for background and then normalized to cultures grown in the presence of the DMSO carrier solvent. Each condition was performed in triplicate, and results are presented as the mean of the normalized values ± the SD. The resulting dose-response curves were fitted by non-linear regression analysis for estimation of the IC50 values (see Table 2). […] Fes and Flt3 kinase proteins were then immunoprecipitated from cell lysates followed by immunoblotting with antibodies to phosphotyrosine (pTyr), the Fes activation loop phosphotyrosine (pY713), as well as the Flt3 and Fes proteins.

TF-1/Flt3-D835Y cells = test: as above; type: cell-based, human
Procedure: as §1, §3, §4

TF-1/Flt3-ITD cells = test: as above; type: cell-based, human
Procedure: as §1, §3, §4

[2] = test system: TF-1 cells expressing Flt3-WT; test: as above; type: cell-based
Procedure: as §1, §3, §4

[3] = test system: Flt3-ITD+ AML cell lines (MV4-11, MOLM-13, MOLM-14); test: Growth inhibition across Flt3-ITD+ AML cell lines; type: cell-based; conditions: Homo sapiens, 72 h
Procedure: as §1
Raw fluorescence data were corrected for background and then normalized to cultures grown in the presence of the DMSO carrier solvent. Each assay condition was performed in triplicate, and results are presented as the mean of the normalized values ± the SD.

[4] = test system: Flt3-ITD in MV4-11 and MOLM-14 cells; test: Immunoprecipitation/immunoblot of Flt3 phosphotyrosine content in AML cells; type: cell-based, human; conditions: compound at in vitro IC90 for Fes, 16 h (tandutinib: IC90 for Flt3-ITD, 6 h)
Procedure: (§5) AML cells (2.5 x 10^6 in 5 mL) were cultured in the presence of kinase inhibitors or DMSO alone for 6 to 16 hours prior to lysis by sonication in RIPA buffer (50 mM Tris-HCl, pH 7.4, 150 mM NaCl, 1 mM EDTA, 1% Triton X-100, 0.1% SDS, 1% sodium deoxycholate) supplemented with 1 mM sodium orthovanadate, 1 mM sodium fluoride, 5 units/ml Benzonase (Novagen), and SigmaFAST EDTA-free protease inhibitor cocktail (Sigma). Flt3 and Fes were immunoprecipitated from 1 mg of cell lysate with 2 μg of antibody and 25 μL of protein G-Sepharose beads (Life Technologies) overnight at 4°C. Immunoprecipitates were washed three times by resuspension in 1.0 ml of RIPA buffer. Immunoprecipitated proteins were separated by SDS-PAGE, transferred to PVDF membranes and probed with the indicated antibodies followed by alkaline phosphatase-linked secondary antibodies. CDP-Star Western Blot Chemiluminescence Reagent (Perkin-Elmer) was used for detection.
(§6) Fes and Flt3 kinase proteins were then immunoprecipitated from cell lysates, followed by immunoblotting with antibodies to phosphotyrosine (pTyr), the Fes activation loop phosphotyrosine (pY713), as well as the Flt3 and Fes proteins.

[5] = test system: T1, Fes in MV4-11 and MOLM-14 cells; test: Immunoprecipitation/immunoblot of Fes activation loop phosphorylation (pY713) in AML cells; type: cell-based, human; conditions: compound at in vitro IC90 for Fes, 16 h (tandutinib: IC90 for Flt3-ITD, 6 h)
T1 construct: endogenous in cells; host or cells: MV4-11 and MOLM-14
Procedure: as §5, §6

[6] = test system: Fes in TF-1/Flt3-ITD cells; test: Immunoprecipitation/immunoblot of Fes pY713 in TF-1/Flt3-ITD cells; type: cell-based, human; conditions: compound at in vitro IC90 for Fes, 16 h (tandutinib: IC90 for Flt3-ITD, 6 h)
Procedure: as §5, §4

[7] = test system: Flt3-D835Y in TF-1/Flt3-D835Y cells; test: Immunoprecipitation/immunoblot of Flt3-D835Y phosphotyrosine content in TF-1/Flt3-D835Y cells; type: cell-based, human; conditions: immunoblot, compound at in vitro IC90
Procedure: as §5, §4

Work on `COc1cc(N2CCC(O)CC2)ccc1Nc1nc(Nc2ccccc2S(=O)(=O)C(C)C)c2cn[nH]c2n1` [WZ4-49-1] yielded an IC50 (MOLM-13 cells) of 884 nM, an IC50 (MOLM-14 cells) of 994 nM and an IC50 (MV4-11 cells) of 965 nM. It also gave an IC50 (THP-1 cells) greater than 3000 nM, an IC50 [1] greater than 3000 nM and an IC50 (TF-1/Flt3-D835Y cells; Homo sapiens, TF-1, 72 h, read-out: Inhibitor sensitivity of TF-1 Cell Populations (IC50, nM) Flt3-D835Y) of 597 nM. The IC50 (TF-1/Flt3-ITD cells; Homo sapiens, TF-1, 72 h, read-out: Inhibitor sensitivity of TF-1 Cell Populations (IC50, nM) Flt3-ITD) was 466 nM, the “Potency in TF-1/Flt3-ITD cells compared to the Flt3-ITD+ AML cells” value (TF-1/Flt3-ITD cells; growth inhibition) was “about two-fold higher” and the IC50 ([2]; Homo sapiens, TF-1, 72 h, read-out: Inhibitor sensitivity of TF-1 Cell Populations (IC50, nM) Flt3-WT) was greater than 3000 nM. For the same compound, the pIC50 ([3]; read-out: IC50 values for growth inhibition in all three Flt3-ITD+ AML cell lines) was roughly 6.00, the “Inhibition of Flt3-ITD phosphotyrosine content in MV4-11 and MOLM-14 cells” value [4] was “only inhibited Fes” and the “Inhibition of Fes activation loop phosphorylation in MV4-11 and MOLM-14 cells” value [5] was “only inhibited Fes”. For the same compound, the “Inhibition of Fes activation loop phosphorylation in TF-1/Flt3-ITD cells” value [6] was “only inhibited the activity of Fes” and the “Inhibition of Flt3-D835Y phosphotyrosine content in TF-1/Flt3-D835Y cells” value [7] was “complete inhibition”.

`CCN1CCN(Cc2ccc(NC(=O)c3ccc(C)c(Oc4ccnc5[nH]ccc45)c3)cc2C(F)(F)F)CC1` [HG7-92-01] gave an IC50 (MOLM-13 cells) of 93 nM, an IC50 (MOLM-14 cells) of 34 nM and an IC50 (MV4-11 cells) of 19 nM. The IC50 (THP-1 cells) was greater than 3000 nM, the IC50 [1] was greater than 1000 nM and the “Activity on TF-1/Flt3-D835Y cell growth” value (TF-1/Flt3-D835Y cells; 72 h) was “devoid of activity”. For the same compound, the IC50 (TF-1/Flt3-D835Y cells; Homo sapiens, TF-1, 72 h; read-out: Inhibitor sensitivity of TF-1 Cell Populations (IC50, nM) Flt3-D835Y) was greater than 1000 nM, the IC50 (TF-1/Flt3-ITD cells; Homo sapiens, TF-1, 72 h; read-out: Inhibitor sensitivity of TF-1 Cell Populations (IC50, nM) Flt3-ITD) was 29 nM and the IC50 ([2]; Homo sapiens, TF-1, 72 h; read-out: Inhibitor sensitivity of TF-1 Cell Populations (IC50, nM) Flt3-WT) was greater than 1000 nM. For the same compound, the pIC50 ([3]; MV4-11, MOLM-13, MOLM-14, read-out: IC50 values for growth inhibition, range over the Flt3-ITD+ AML cell lines) was 6.78 to 7.72, the “Inhibition of Flt3-ITD phosphotyrosine content in MV4-11 and MOLM-14 cells” value [4] was “inhibited Flt3-ITD and Fes in both cell lines” and the “Inhibition of Fes activation loop phosphorylation in MV4-11 and MOLM-14 cells” value [5] was “inhibited Flt3-ITD and Fes in both cell lines”. For the same compound, the “Inhibition of Fes activation loop phosphorylation in TF-1/Flt3-ITD cells” value [6] was “inhibited both Flt3-ITD and Fes” and the “Inhibition of Flt3-D835Y phosphotyrosine content in TF-1/Flt3-D835Y cells” value [7] was “without effect”.
